From patent EP4682145A1, “BENZOHETEROCYCLIC COMPOUND, AND PREPARATION METHOD THEREFOR AND USE THEREOF” (Cascade Pharmaceuticals, Inc., priority 2023, dated 2024)
Marks after values point to notes of the source that are not given here.

Legend:
normal C57BL6/J mice = assay: Oral glucose tolerance test (OGTT) in normal C57BL6/J mice; type: in vivo; details: 1 mg/kg gavage, single dose; for AUC 0-120 minutes: blood glucose AUC
Protocol: Eighteen normal male C57BL6/J mice (8-9 weeks old) were selected and randomly divided into 3 groups based on body weight and blood glucose levels, with 6 mice in each group. On the day of the OGTT, fasting was initiated at 8:30 AM. At 11:30 AM, drug interventions were administered via gavage (vehicle control, compound 14, 1 mg/kg, and compound 169, 1 mg/kg). At 1:30 PM, glucose (2 g/kg) was administered via gavage, while the blank control group received the vehicle control orally (2% DMSO + 15% solutol + 83% DDW solution) at a dosing volume of 10 mL/kg. Blood glucose measurements during the OGTT were taken at the following time points: 0, 15, 30, 60, 90, and 120 minutes after glucose administration.
Blood glucose levels were measured at 0, 15, 30, 60, and 120 minutes after glucose administration. The area under the curve (AUC) for blood glucose over 120 minutes was calculated. [formula]
(§1) Note: BG0, BG15, BG30, BG60, BG90, and BG120 represent the blood glucose levels at 0, 15, 30, 60, 90, and 120 minutes after glucose administration, respectively.
(§2) Data were expressed as mean ± standard deviation. One-way ANOVA was employed for statistical analysis, with p < 0.05 considered statistically significant.

[1] = system: high-fat diet-induced DIO mice; assay: Oral glucose tolerance test (OGTT) in high-fat diet-induced DIO mice; type: in vivo
From the text: Normal male C57BL6/J mice (8-9 weeks old) were housed 3-4 per cage and fed a high-fat, high-cholesterol, high-fructose diet (D09100310, Research Diets) for 13 weeks with unrestricted access to water. After 13 weeks of high-fat, high-cholesterol, high-fructose diet feeding, the mice were randomly divided into 5 groups based on body weight and blood glucose levels, with age-matched mice fed a normal diet serving as the normal blank control group, with 6 mice in each group. Under fasting conditions (16 hours), the test compound 169 was administered via oral gavage at different concentrations of 0.03, 0.1, 0.6, and 3 mg/kg, while the normal blank control and model control groups were given the vehicle (15% solutol + 85% DDW solution), with a dosing volume of 10 mL/kg. On the day of administration, blood glucose levels in mice were measured. 2 hours after oral gavage administration, each group was given 2 g/kg of glucose orally. Blood glucose levels were measured at 0, 15, 30, 60, 90, 120, and 150 minutes after glucose administration.
Blood glucose levels were measured at 0, 15, 30, 60, and 120 minutes after glucose administration. […]
as §1, §2

C57BL6/J mice = assay: In vivo pharmacodynamic assay for non-alcoholic fatty liver disease (high-fat, high-cholesterol, high-fructose diet mice); details: for Hepatic Hydroxyproline / Total Liver Hydroxyproline (µg/liver): liver; for ALT (U/L) / AST (U/L): serum
Protocol: Normal male C57BL6/J mice ([…]) were fed a high-fat, high-cholesterol, high-fructose diet (D09100310, Research Diets) for 20 weeks. Based on body weight and biochemical data, the mice were randomly divided into groups, with 6 mice per group. The compound 169 (0.03, 0.1, and 0.6 mg/kg) was administered via oral gavage. The positive control was MGL3196 (1 mg/kg), and the blank control group consisted of mice of the same strain and age fed a normal diet for the same duration. The blank control and model control groups were given the vehicle (15% solutol + 85% DDW), totaling 6 groups. Administration was performed once daily for 28 days. After overnight fasting, on day 29 at the experimental endpoint, blood was collected from the heart after CO2 euthanasia. Serum ALT and AST biochemical indicators were measured, and liver tissue was harvested for hepatic hydroxyproline content determination.
Blood was collected using anticoagulant-free tubes, allowed to stand at room temperature for 30 minutes, and then centrifuged at 4000 rpm for 10 minutes to separate serum, which was tested by Dian Diagnostics. Approximately 50 mg of liver tissue was taken from each mouse and tested according to the hydroxyproline assay kit method (Nanjing Jiancheng, Cat. No.: A030-2-1).
as §2

[2] = 0.03 mpk oral gavage once daily for 28 days
[3] = 0.1 mpk oral gavage once daily for 28 days
[4] = 0.6 mpk oral gavage once daily for 28 days

## COc1ccc(F)c(N2CCC(c3oc4cc([C@@H](CC(=O)O)C5CC5)ccc4c3-c3ccc(C(C)(C)C)cc3)CC2)c1 [Compound 169]
Normal C57BL6/J mice; 0 minutes after glucose (2 g/kg)
  Blood Glucose: 7.88 ± 0.62 mmol/L
Normal C57BL6/J mice; 15 minutes after glucose (2 g/kg)
  Blood Glucose: 12.78 ± 1.65 mmol/L
Normal C57BL6/J mice; 30 minutes after glucose (2 g/kg)
  Blood Glucose: 9.28 ± 1.32 mmol/L
Normal C57BL6/J mice; 60 minutes after glucose (2 g/kg)
  Blood Glucose: 9.28 ± 1.32 mmol/L
Normal C57BL6/J mice; 90 minutes after glucose (2 g/kg)
  Blood Glucose: 7.67 ± 2.31 mmol/L
Normal C57BL6/J mice; 120 minutes after glucose (2 g/kg)
  Blood Glucose: 7.13 ± 1.25 mmol/L
Normal C57BL6/J mice; 1 mg/kg
  AUC 0-120 minutes: 1075±66.01
Normal C57BL6/J mice; listed as compound 169, 1 mg/kg
  AUC 0-120 minutes: significantly reduced
[1]; 0.03 mg/kg oral gavage, 0 minutes after glucose (2 g/kg)
  Blood Glucose: 10.78 ± 0.81 mmol/L
[1]; 0.03 mg/kg oral gavage, 15 minutes after glucose
  Blood Glucose: 20.08 ± 2.94 mmol/L
[1]; 0.03 mg/kg oral gavage, 30 minutes after glucose
  Blood Glucose: 16.63 ± 3.66 mmol/L
[1]; 0.03 mg/kg oral gavage, 60 minutes after glucose
  Blood Glucose: 14.62 ± 3.62 mmol/L
[1]; 0.03 mg/kg oral gavage, 90 minutes after glucose
  Blood Glucose: 14.92 ± 2.34 mmol/L
[1]; 0.03 mg/kg oral gavage, 150 minutes after glucose
  Blood Glucose: 10.75 ± 1.1 mmol/L
[1]; 0.1 mg/kg oral gavage, 0 minutes after glucose (2 g/kg)
  Blood Glucose: 9.28 ± 2.89 mmol/L
[1]; 0.1 mg/kg oral gavage, 15 minutes after glucose
  Blood Glucose: 17.65 ± 2.09 mmol/L
[1]; 0.1 mg/kg oral gavage, 30 minutes after glucose
  Blood Glucose: 18.67 ± 4.11 mmol/L
[1]; 0.1 mg/kg oral gavage, 60 minutes after glucose
  Blood Glucose: 13.53 ± 3.03 mmol/L
[1]; 0.1 mg/kg oral gavage, 90 minutes after glucose
  Blood Glucose: 10.27 ± 1.68 mmol/L
[1]; 0.1 mg/kg oral gavage, 120 minutes after glucose
  Blood Glucose: 10.05 ± 1.47 mmol/L
[1]; 0.1 mg/kg oral gavage, 150 minutes after glucose
  Blood Glucose: 10.17 ± 1.68 mmol/L
[1]; 0.6 mg/kg oral gavage, 0 minutes after glucose (2 g/kg)
  Blood Glucose: 9.57 ± 2.06 mmol/L
[1]; 0.6 mg/kg oral gavage, 15 minutes after glucose
  Blood Glucose (mmol/L): 16.48± 2.15** * mmol/L
[1]; 0.6 mg/kg oral gavage, 30 minutes after glucose
  Blood Glucose: 12.97 ± 3.71 mmol/L
[1]; 0.6 mg/kg oral gavage, 60 minutes after glucose
  Blood Glucose: 11.98 ± 2.95 mmol/L
[1]; 0.6 mg/kg oral gavage, 90 minutes after glucose
  Blood Glucose: 11.27 ± 2.66 mmol/L
[1]; 0.6 mg/kg oral gavage, 120 minutes after glucose
  Blood Glucose: 9.12 ± 2.14 mmol/L
[1]; 0.6 mg/kg oral gavage, 150 minutes after glucose
  Blood Glucose: 9.52 ± 1.62 mmol/L
[1]; 3 mg/kg oral gavage, 0 minutes after glucose (2 g/kg)
  Blood Glucose: 13.02 ± 2.46 mmol/L
[1]; 3 mg/kg oral gavage, 15 minutes after glucose
  Blood Glucose: 17.22 ± 2.02 mmol/L
[1]; 3 mg/kg oral gavage, 30 minutes after glucose
  Blood Glucose: 14 ± 3.49 mmol/L
[1]; 3 mg/kg oral gavage, 60 minutes after glucose
  Blood Glucose: 10.52 ± 2.23 mmol/L
[1]; 3 mg/kg oral gavage, 90 minutes after glucose
  Blood Glucose: 9.88 ± 0.85 mmol/L
[1]; 3 mg/kg oral gavage, 120 minutes after glucose
  Blood Glucose: 8.3 ± 1.63 mmol/L
[1]; 3 mg/kg oral gavage, 150 minutes after glucose
  Blood Glucose (mmol/L): 7.37±1.44* * mmol/L
[1]; blood glucose AUC, 0.03 mg/kg oral gavage
  AUC0-150 min: 2194 ± 132.70 mmol·min
[1]; blood glucose AUC, 0.1 mg/kg oral gavage, 0.1 mg/kg
  AUC0-150 min (mmol*min): significantly reduced
[1]; blood glucose AUC, 0.6 mg/kg oral gavage, 0.6 mg/kg
  AUC0-150 min (mmol*min): 1725± 119.90 **** mmol*min
[1]; blood glucose AUC, 0.6 mg/kg oral gavage, listed as compound 169, 0.6 mg/kg
  AUC0-150 min (mmol*min): significantly reduced
[1]; blood glucose AUC, 3 mg/kg oral gavage, 3 mg/kg
  AUC0-150 min (mmol*min): 1642±91.83 **** mmol*min
[1]; blood glucose AUC, 3 mg/kg oral gavage, listed as compound 169, 3 mg/kg
  AUC0-150 min (mmol*min): significantly reduced
C57BL6/J mice; [2]
  Hepatic Hydroxyproline: 128.06 ± 55.18 µg/g
  Total Liver Hydroxyproline (µg/liver): 308.56±121.44 µg/liver
  ALT (U/L): 148±81.95 U/L
  AST (U/L): 204.5±79.09 U/L
C57BL6/J mice; [3]
  Hepatic Hydroxyproline: 119.16 ± 39.65 µg/g
  Total Liver Hydroxyproline (µg/liver): 266.4±80.67 µg/liver
  ALT (U/L): 110±37.12 U/L
  AST (U/L): 156±30.59 U/L
C57BL6/J mice; [4]
  Hepatic Hydroxyproline: 85.24 ± 47.63 µg/g
  Total Liver Hydroxyproline (µg/liver): 187.94±110.56 µg/liver
  ALT (U/L): 103.8±35.53 U/L
  AST (U/L): 163.2±42.98 U/L
C57BL6/J mice; doses of 0.03, 0.1, and 0.6 mg/kg, compared with the model control
  liver protection and liver fibrosis inhibition effects: reduced ALT, AST, and liver hydroxyproline levels
